pKi: −log10 of the molar value.
How the values were obtained:
P2X7 [1] = biological target: T1, P2X7 (Homo sapiens (Human), UniProt Q99572); test: P2X7 antagonism in human peripheral blood mononuclear cells (PBMCs), IL-1β release; assay type: cell-based; details: 10 μM compound; for remaining activity at 10 µM: P2X7, Table 3 (additional runs), read-out: PBMC 10 μM (% control)
How it was run: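 Ficoll-isolated human PBMCs primed with LPS (30 ng/ml) for 1 h, treated with compound for 30 min, then stimulated with 0.5 mM Bz-ATP for 1.5 h. Supernatant IL-1β measured by ELISA as % of LPS+Bz-ATP minus LPS-only release; IC50 from concentration–response of triplicate means.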

P2X7 [2] = biological target: T1, P2X7; test: Radioligand binding, human P2X7-1321N1 cell membranes, tracer tritiated A-804598; details: Table 3 (additional runs)
Description: P2X7 Antagonism in Recombinant Human P2X7 Cells or Recombinant Rat P2X7 Cells: (a) Ca^2+ Flux and (b) Radioligand Binding
(b) Radioligand Binding: human or rat P2X7-1321N1 cells were collected and frozen @−80° C. On the day of the experiment, cell membrane preparations were made according to standard published methods. The total assay volume was 100 μl:10 μl compound (10×)+(b) 40 μl tracer (2.5×)+50 μl membrane (2×). The tracer used for the assay was tritiated A-804598. The compound can be prepared as described in the literature. (Donnelly-Roberts, D. Neuropharmacology 2008, 56 (1), 223-229.) Compounds, tracer and membranes were incubated for 1 hour @ 4° C. The assay was terminated by filtration (GF/B filters pre-soaked with 0.3% PEI) and washed with washing buffer (Tris-HCl 50 mM). The IC50 generated in the binding assay was corrected for tracer concentration and affinity of the tracer to derive at the affinity (K) of the test compounds. […] Data are analyzed and graphed on Graphpad Prism 5. For analysis, each concentration point is averaged from triplicate values and the averaged values are plotted on Graphpad Prism.

T1 sequence (Q99572 whole entry): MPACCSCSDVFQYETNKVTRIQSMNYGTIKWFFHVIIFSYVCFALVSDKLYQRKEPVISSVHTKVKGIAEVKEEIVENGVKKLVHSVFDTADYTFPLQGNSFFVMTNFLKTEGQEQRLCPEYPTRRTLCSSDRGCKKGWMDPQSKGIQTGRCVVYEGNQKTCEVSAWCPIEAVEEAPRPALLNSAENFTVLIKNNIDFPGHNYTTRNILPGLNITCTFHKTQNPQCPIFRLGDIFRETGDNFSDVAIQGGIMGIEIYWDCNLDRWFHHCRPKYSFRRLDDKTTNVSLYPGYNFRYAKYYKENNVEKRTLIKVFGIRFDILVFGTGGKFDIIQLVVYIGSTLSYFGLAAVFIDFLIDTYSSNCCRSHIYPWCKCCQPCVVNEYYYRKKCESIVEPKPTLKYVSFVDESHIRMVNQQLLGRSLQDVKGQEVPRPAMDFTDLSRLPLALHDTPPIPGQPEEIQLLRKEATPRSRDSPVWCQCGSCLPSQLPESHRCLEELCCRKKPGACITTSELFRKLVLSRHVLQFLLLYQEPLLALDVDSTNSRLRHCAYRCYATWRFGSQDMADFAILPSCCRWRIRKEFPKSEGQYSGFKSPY

| Structure (SMILES) | remaining activity at 10 µM (P2X7 [1]) | pKi (P2X7 [2]) | PBMC 10 μM (% control) (P2X7 [1]; Table 2, IL-1β release, LPS + 0.5 mM Bz-ATP) |
| --- | --- | --- | --- |
| CC(c1cccc(C(F)(F)F)c1Cl)N1C(=O)c2nnc(-c3cnccn3)n2C[C@@H]1C (stereo partly shown) [Example 93] | 4.5% | – | 4.5 % control |
| C[C@H]1Cn2c(-c3cnccn3)nnc2-c2nnc(-c3cccc(C(F)(F)F)c3Cl)n21 [Example 99, (5S)-3-[2-Chloro-3-(trifluoromethyl)phenyl]-5-methyl-8-pyrazin-2-yl-5,6-dihydrobis[1,2,4]triazolo[4,3-a:3′,4′-c]pyrazine] | 34.3% | 8.10 | – |
| C[C@H]1Cn2c(-c3cnccn3)nnc2-c2nnc(-c3cccc(Cl)c3Cl)n21 [Example 100, (5S)-3-(2,3-Dichlorophenyl)-5-methyl-8-pyrazin-2-yl-5,6-dihydrobis[1,2,4]triazolo[4,3-a:3′,4′-c]pyrazine] | 17.2% | 7.70 | – |
| C[C@H]1Cn2c(-c3ccc(F)cc3)nnc2-c2nnc(-c3cccc(C(F)(F)F)c3Cl)n21 [Example 101, (5S)-3-[2-Chloro-3-(trifluoromethyl)phenyl]-8-(4-fluorophenyl)-5-methyl-5,6-dihydrobis[1,2,4]triazolo[4,3-a:3′,4′-c]pyrazine] | 1.2% | 7.40 | – |
| C[C@H]1Cn2c(-c3ccc(F)cn3)nnc2-c2nnc(-c3cccc(C(F)(F)F)c3Cl)n21 [Example 102, (5S)-3-[2-Chloro-3-(trifluoromethyl)phenyl]-8-(5-fluoropyridin-2-yl)-5-methyl-5,6-dihydrobis[1,2,4]triazolo[4,3-a:3′,4′-c]pyrazine] | 1.4% | – | – |
| C[C@H]1Cn2c(-c3cc[nH]n3)nnc2-c2nnc(-c3cccc(C(F)(F)F)c3Cl)n21 [Example 103, (5S)-3-[2-Chloro-3-(trifluoromethyl)phenyl]-5-methyl-8-(1H-pyrazol-3-yl)-5,6-dihydrobis[1,2,4]triazolo[4,3-a:3′,4′-c]pyrazine] | 3.3% | 7.65 | – |
| C[C@H]1Cn2c(-c3cocn3)nnc2-c2nnc(-c3cccc(C(F)(F)F)c3Cl)n21 [Example 104, (5S)-3-[2-Chloro-3-(trifluoromethyl)phenyl]-5-methyl-8-(1,3-oxazol-4-yl)-5,6-dihydrobis[1,2,4]triazolo[4,3-a:3′,4′-c]pyrazine] | 4.3% | – | – |
| C[C@H]1Cn2c(-c3ncccn3)nnc2-c2nnc(-c3cccc(C(F)(F)F)c3Cl)n21 [Example 105, (5S)-3-[2-Chloro-3-(trifluoromethyl)phenyl]-5-methyl-8-pyrimidin-2-yl-5,6-dihydrobis[1,2,4]triazolo[4,3-a:3′,4′-c]pyrazine] | 0.2% | 8.40 | – |
| C[C@H]1Cn2c(-c3nccs3)nnc2-c2nnc(-c3cccc(C(F)(F)F)c3Cl)n21 [Example 106, (5S)-3-[2-Chloro-3-(trifluoromethyl)phenyl]-5-methyl-8-(1,3-thiazol-2-yl)-5,6-dihydrobis[1,2,4]triazolo[4,3-a:3′,4′-c]pyrazine] | 1.9% | 7.90 | – |
| C[C@H]1Cn2cnnc2-c2nnc(-c3cccc(C(F)(F)F)c3Cl)n21 [Example 107, (5S)-3-[2-Chloro-3-(trifluoromethyl)phenyl]-5-methyl-5,6-dihydrobis[1,2,4]triazolo[4,3-a:3′,4′-c]pyrazine] | 40.2% | – | – |
| C[C@H]1Cn2c(-c3cccnn3)nnc2-c2nnc(-c3cccc(C(F)(F)F)c3Cl)n21 [Example 108, (5S)-3-[2-Chloro-3-(trifluoromethyl)phenyl]-5-methyl-8-pyridazin-3-yl-5,6-dihydrobis[1,2,4]triazolo[4,3-a:3′,4′-c]pyrazine] | -0.5% | – | – |
| Cc1ncsc1-c1nnc2n1C[C@H](C)n1c(-c3cccc(C(F)(F)F)c3Cl)nnc1-2 [Example 109, (5S)-3-[2-Chloro-3-(trifluoromethyl)phenyl]-5-methyl-8-(4-methyl-1,3-thiazol-5-yl)-5,6-dihydrobis[1,2,4]triazolo[4,3-a:3′,4′-c]pyrazine] | -1.2% | 7.20 | – |

Now from value to molecule, other results behind:

| remaining activity at 10 µM (P2X7 [1]) | pKi (P2X7 [2]) | Structure (SMILES) | PBMC 10 μM (% control) (P2X7 [1]; Table 2, IL-1β release, LPS + 0.5 mM Bz-ATP) |
| --- | --- | --- | --- |
| -1.4% | 7.20 | Cc1cnc(-c2nnc3n2C[C@H](C)n2c(-c4cccc(C(F)(F)F)c4Cl)nnc2-3)cn1 [Example 110, (5S)-3-[2-Chloro-3-(trifluoromethyl)phenyl]-5-methyl-8-(5-methylpyrazin-2-yl)-5,6-dihydrobis[1,2,4]triazolo[4,3-a:3′,4′-c]pyrazine] | – |
| 6.1% | 8.00 | C[C@H]1Cn2c(-c3ccncn3)nnc2-c2nnc(-c3cccc(C(F)(F)F)c3Cl)n21 [Example 111, (5S)-3-[2-Chloro-3-(trifluoromethyl)phenyl]-5-methyl-8-pyrimidin-4-yl-5,6-dihydrobis[1,2,4]triazolo[4,3-a:3′,4′-c]pyrazine] | – |
| 6.7% | 6.90 | C[C@H]1Cn2c(-c3cn[nH]c3)nnc2-c2nnc(-c3cccc(C(F)(F)F)c3Cl)n21 [Example 112, (5S)-3-[2-Chloro-3-(trifluoromethyl)phenyl]-5-methyl-8-(1H-pyrazol-4-yl)-5,6-dihydrobis[1,2,4]triazolo[4,3-a:3′,4′-c]pyrazine] | – |
| 5.8% | 8.06 | COc1ccnc(-c2nnc3n2C[C@H](C)n2c(-c4cccc(C(F)(F)F)c4Cl)nnc2-3)c1 [Example 113, (5S)-3-[2-Chloro-3-(trifluoromethyl)phenyl]-8-(4-methoxypyridin-2-yl)-5-methyl-5,6-dihydrobis[1,2,4]triazolo[4,3-a:3′,4′-c]pyrazine] | – |
| 4.4% | – | C[C@H]1Cn2c(-c3cnn(C)c3)nnc2-c2nnc(-c3cccc(C(F)(F)F)c3Cl)n21 [Example 114, (5S)-3-[2-Chloro-3-(trifluoromethyl)phenyl]-5-methyl-8-(1-methyl-1H-pyrazol-4-yl)-5,6-dihydrobis[1,2,4]triazolo[4,3-a:3′,4′-c]pyrazine] | – |
| 2.1% | 7.36 | C[C@H]1Cn2c(-c3cnco3)nnc2-c2nnc(-c3cccc(C(F)(F)F)c3Cl)n21 [Example 115, (5S)-3-[2-Chloro-3-(trifluoromethyl)phenyl]-5-methyl-8-(1,3-oxazol-5-yl)-5,6-dihydrobis[1,2,4]triazolo[4,3-a:3′,4′-c]pyrazine] | – |
| 6.2% | – | CCc1nnc2n1C[C@H](C)n1c(-c3cccc(C(F)(F)F)c3Cl)nnc1-2 [Example 116, (S)-3-[2-chloro-3-(trifluoromethyl)phenyl]-8-ethyl-5-methyl-5,6-dihydrobis[1,2,4]triazolo[4,3-a:3′,4′-c]pyrazine] | – |
| 25.9% | – | C[C@H]1Cn2c(-c3cccc(C(F)(F)F)n3)nnc2-c2nnc(-c3cccc(C(F)(F)F)c3Cl)n21 [Example 117, (S)-3-[2-chloro-3-(trifluoromethyl)phenyl]-5-methyl-8-(6-(trifluoromethyl)pyridine-2-yl)-5,6-dihydrobis[1,2,4]triazolo[4,3-a:3′,4′-c]pyrazine] | – |
| 9.9% | 7.20 | C[C@H]1Cn2c(-c3nccc(C(F)(F)F)n3)nnc2-c2nnc(-c3cccc(C(F)(F)F)c3Cl)n21 [Example 118, (S)-3-[2-chloro-3-(trifluoromethyl)phenyl]-5-methyl-8-(4-(trifluoromethyl)pyrimidin-2-yl)-5,6-dihydrobis[1,2,4]triazolo[4,3-a:3′,4′-c]pyrazine] | – |
| 15% | 7.85 | C[C@H]1Cn2c(-c3cc(C(F)(F)F)ccn3)nnc2-c2nnc(-c3cccc(C(F)(F)F)c3Cl)n21 [Example 119, (S)-3-[2-chloro-3-(trifluoromethyl)phenyl]-5-methyl-8-(4-(trifluoromethyl)pyridin-2-yl)-5,6-dihydrobis[1,2,4]triazolo[4,3-a:3′,4′-c]pyrazine] | – |
| 7% | 7.60 | C[C@H]1Cn2c(-c3ccc(Cl)cn3)nnc2-c2nnc(-c3cccc(C(F)(F)F)c3Cl)n21 [Example 120, (S)-3-[2-chloro-3-(trifluoromethyl)phenyl]-5-methyl-8-(5-chloropyridin-2-yl)-5,6-dihydrobis[1,2,4]triazolo[4,3-a:3′,4′-c]pyrazine] | – |
| 9.3% | 7.80 | Cc1ccc(-c2nnc3n2C[C@H](C)n2c(-c4cccc(C(F)(F)F)c4Cl)nnc2-3)s1 [Example 121, (S)-3-[2-chloro-3-(trifluoromethyl)phenyl]-5-methyl-8-(5-methylthiophen-2-yl)-5,6-dihydrobis[1,2,4]triazolo[4,3-a:3′,4′-c]pyrazine] | – |
| 9.5% | – | C[C@H]1Cn2c(-c3cccnc3)nnc2-c2nnc(-c3cccc(C(F)(F)F)c3Cl)n21 [Example 122, (S)-3-[2-chloro-3-(trifluoromethyl)phenyl]-5-methyl-8-(pyridin-3-yl)-5,6-dihydrobis[1,2,4]triazolo[4,3-a:3′,4′-c]pyrazine] | – |
| 2.4% | – | Cc1cncc(-c2nnc3n2C[C@H](C)n2c(-c4cccc(C(F)(F)F)c4Cl)nnc2-3)c1 [Example 123, (S)-3-(2-chloro-3-(trifluoromethyl)phenyl)-5-methyl-8-(5-methylpyridin-3-yl)-5,6-dihydrobis([1,2,4]triazolo)[4,3-a:3′,4′-c]pyrazine] | – |

Source: US10053463B2 (Janssen Pharmaceutica NV, priority 2013, dated 2018)
